In patent US7956069B2, “Compounds” (AstraZeneca AB, priority 2006, dated 2011):

Key:
[1] = biological target: T1, hM5 (human Muscarinic receptor subtype 5) (Homo sapiens, UniProt P08912); experiment: Human M5 calcium mobilization FLIPR assay; assay type: cell-based; conditions: CHO cells expressing hM5, Ca2+ release
T1 construct: expressed in transfected cells; host or cells: CHO cells (Chinese hamster ovary cells, ATCC)
T1 sequence (P08912 1-532): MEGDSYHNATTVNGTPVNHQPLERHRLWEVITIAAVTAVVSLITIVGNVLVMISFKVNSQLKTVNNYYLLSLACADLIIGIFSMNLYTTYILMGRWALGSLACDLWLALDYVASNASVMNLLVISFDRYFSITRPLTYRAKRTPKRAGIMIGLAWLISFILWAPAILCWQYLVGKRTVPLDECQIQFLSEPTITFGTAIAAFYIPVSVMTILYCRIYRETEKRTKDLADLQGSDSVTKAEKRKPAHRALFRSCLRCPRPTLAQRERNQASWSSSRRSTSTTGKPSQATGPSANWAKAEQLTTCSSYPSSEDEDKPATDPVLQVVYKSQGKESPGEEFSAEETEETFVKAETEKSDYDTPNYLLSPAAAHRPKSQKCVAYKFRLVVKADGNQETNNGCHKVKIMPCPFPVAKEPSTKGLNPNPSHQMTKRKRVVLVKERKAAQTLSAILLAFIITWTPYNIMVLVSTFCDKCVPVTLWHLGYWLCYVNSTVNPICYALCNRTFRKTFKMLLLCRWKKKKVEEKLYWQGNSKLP
Description: (§1) Biological Evaluation Human M1, Rat M1, Human M3 and Human M5 Calcium Mobilization FLIPR™ Assay
(§2) The compound activity in the present invention (EC50 or IC50) was measured using a 384 plate-based imaging assay that monitors drug induced intracellular Ca^2+ release in whole cells. Activation of hM1 (human Muscarinic receptor subtype 1, gene bank access NM_000738), rM1 (rat Muscarinic receptor subtype 1, gene bank access NM_080773), hM3 (human Muscarinic receptor subtype 3, gene bank access NM_000740NM_000740) and hM5 (human Muscarinic receptor subtype 5, gene bank access NM_0121258), receptors expressed in CHO cells (Chinese hamster ovary cells, ATCC) was quantified in a Molecular Devices FLIPR II™ instrument as an increase in fluorescent signal. Inhibition of hM3 and hM5 by compounds was determined by the decrease in fluorescent signal in response to 20 nM carbachol activation.
(§3) CHO cells were plated in 384-black polylysine coated plate (Costar) at 8000 cells/well/50 μl for 24 hours or 4000 cells/well for 48 hours in a humidified incubator (5% CO2 and 37° C.) in DMEM/F12 medium without selection agent. Prior to the experiment the cell culture medium was removed from the plates by inversion. A loading solution of 30 μl of Hank's balanced salt solution, 10 mM Hepes and 2.5 mM Probenicid at Ph 7.4 (Cat no. 311-520-VL, Wisent) with 2 μM calcium indicator dye (FLUO-3AM, Molecular Probes F14202) was added to each well. Plates were incubated at 37° C. for 60 minutes prior to start the experiment. The incubation was terminated by washing the cells four times in assay buffer, leaving a residual 25 μl buffer per well. Cell plates were then transferred to the FLIPR, ready for compound additions.
(§4) The day of experiment, carbachol and compounds were diluted in three-fold concentration range (10 points serial dilution) for addition by FLIPR instrument. For all calcium assays, a baseline reading was taken for 30 seconds followed by the addition of 12.5 μl (25 μl for hM1 and rM1) of compounds, resulting in a total well volume of 37.5 μl (50 μl for hM1 and rM1). Data were collected every 1.6 seconds for 300 seconds. For hM3 and hM5 an additional 12.5 μl of carbachol (20 nM final) was added at 300 seconds. After this addition of carbachol (producing a final volume of 50 μl), the FLIPR continued to collect data every 2 seconds for 240 seconds. The fluorescence emission was read using filter 1 (emission 520-545 nm) by the FLIPR on board CCD camera.
(§5) Calcium mobilization output data were calculated as the maximal relative fluorescence unit (RFU) minus the minal value for both compound and agonist reading frame (except for hM1 and rM1 using only the maximal RFU). Data were analyzed using sigmoidal fits of a non-linear curve-fitting program (XLfit version 5.0.6 from ID Business Solutions Limited, Guildford, UK). All EC50 and IC50 values are reported as arithmetic means±standard error of mean of ‘n’ independent experiments.

[2] = biological target: T2, hM3 (human Muscarinic receptor subtype 3) (Homo sapiens, UniProt P20309); experiment: Human M3 calcium mobilization FLIPR assay; assay type: cell-based; conditions: CHO cells expressing hM3, Ca2+ release
T2 construct: expressed in transfected cells; host or cells: CHO cells (Chinese hamster ovary cells, ATCC)
Description: as §1, §2, §3, §4, §5

T2 sequence (P20309 whole entry): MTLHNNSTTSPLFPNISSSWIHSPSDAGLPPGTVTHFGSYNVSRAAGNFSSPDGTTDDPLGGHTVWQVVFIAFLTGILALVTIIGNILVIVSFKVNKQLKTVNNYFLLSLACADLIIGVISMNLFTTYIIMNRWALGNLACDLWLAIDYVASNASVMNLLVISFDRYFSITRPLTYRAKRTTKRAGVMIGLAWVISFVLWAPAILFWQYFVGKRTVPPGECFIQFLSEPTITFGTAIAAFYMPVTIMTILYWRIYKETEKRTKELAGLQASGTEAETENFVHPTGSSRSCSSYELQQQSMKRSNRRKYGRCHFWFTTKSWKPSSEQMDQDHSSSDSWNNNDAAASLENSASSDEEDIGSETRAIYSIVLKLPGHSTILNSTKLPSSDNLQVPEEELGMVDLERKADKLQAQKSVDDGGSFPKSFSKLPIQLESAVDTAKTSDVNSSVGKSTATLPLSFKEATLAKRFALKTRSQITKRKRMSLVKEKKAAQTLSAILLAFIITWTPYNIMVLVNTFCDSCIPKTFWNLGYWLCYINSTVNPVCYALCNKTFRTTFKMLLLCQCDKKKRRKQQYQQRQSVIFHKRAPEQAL

Row | EC50 [1] [µM] | EC50 [2] [µM] | SMILES
1 | 0.22 | 2.5 | CCOC(=O)N1CCC(N2CCC(N3C(=O)N[C@H]4CCCC[C@@H]43)CC2)CC1
2 | 0.036 | > 40 | CC(C)OC(=O)N1CCC(N2CCC(N3C(=O)N[C@H]4CCCC[C@@H]43)CC2)CC1
3 | 0.072 | > 40 | CC(C)OC(=O)N1CCC(N2CCC(N3C(=O)N[C@@H]4CCCC[C@@H]43)CC2)CC1
4 | > 40 | > 40 | CC(C)OC(=O)N1CCC(N2CCC(N3C(=O)C[C@H]4CCCC[C@@H]43)CC2)CC1

Further lines, the compound ahead of its results:

Row | SMILES | EC50 [1] [µM] | EC50 [2] [µM]
5 | CCOC(=O)N1CC[C@H](N2CCC(N3C(=O)N[C@H]4CCCC[C@@H]43)CC2)C1 | 3.9 | > 40
6 | COc1ccccc1C(=O)N1CCC(N2CCC(N3C(=O)N[C@@H]4CCCC[C@H]43)CC2)CC1 | > 40 | > 40
7 | O=C1CCCN1CCC(=O)N1CCC(N2CCC(N3C(=O)N[C@H]4CCCC[C@@H]43)CC2)CC1 | 1.6 | > 40
8 | O=C(C1CC1)N1CCC(N2CCC(N3C(=O)N[C@@H]4CCCC[C@H]43)CC2)CC1 | > 40 | > 40
9 | O=C1CCCN1CCC(=O)N1CCC(N2CCC(N3C(=O)N[C@@H]4CCCC[C@H]43)CC2)CC1 | 2.4 | 5.4
10 | O=C(C1CCCC1)N1CCC(N2CCC(N3C(=O)N[C@H]4CCCC[C@@H]43)CC2)CC1 | > 40 | > 40
11 | CN1C(=O)N(C2CCN(C3CCN(C(=O)C4CC4)CC3)CC2)[C@H]2CCCC[C@@H]21 | > 40 | > 40
